Here are results for four compounds from patent US11318107B2, “Pharmaceutical active-containing film delivery device for oral transmucosal administration” (Avior, Inc., priority 2019, dated 2022).

Structures can show the parent of a compound that is named as a salt.

Series [1] is described as follows: Solubility of nalmefene HCl in polar solvents at 100 mg/mL. The class given is physicochemical. Conditions: test concentration 100 mg/mL. From the text: Ethanol, propylene glycol, glycerol, methanol, and water were considered.
For series [2] the following is noted: cited from earlier work.
The nature of series [3]: Solubility evaluation of nalmefene in solvent systems. The class given is physicochemical. As to the method: In addition, the solubility of nalmefene in varying concentrations was evaluated using different combinations of solvent systems. The solvent systems included combinations of polar solvents with different surface active agents. The solvent systems provided different volatilization rates. […] Exemplary surface active agents included: Tween 20, Tween 80, Gelucire® 34/44, Kolliphor® HS 15, Solutol® NF, Labrafil® M2125 CS and Labrafil® M1944 CS.

Series [4] in a line: in vivo. Conditions: both, beagle, dog, plasma, iv, 4 mg/animal.
Series [5] in a line: Pharmacokinetic study of nalmefene buccal films and nalmefene IV in beagle dogs (plasma, LC/MS, noncompartmental analysis). The following applies: majority of concentrations, after buccal film or IV nalmefene, lower limit of quantitation 0.1 ng/mL.

Take `C=C1CC[C@@]2(O)[C@H]3Cc4ccc(O)c5c4[C@@]2(CCN3CC2CC2)[C@H]1O5` [Nalmefene HCl Monohydrate]: the “Solubility of Nalmefene HCl Monohydrate” value in series [1] (Ethanol NF) is reported as “Partially”; in series [1] (Glycerol USP), “Partially”; in series [1] (Methanol) it was “Highly”; in series [1] (Propylene glycol USP), “Partially”; in series [1] (Water NF) it was “Moderately high”.
As for `C=C1CC[C@@]2(O)[C@H]3Cc4ccc(O)c5c4[C@@]2(CCN3CC2CC2)[C@H]1O5` [Nalmefene hydrochloride], the pKa1 in series [2] (amine) is reported as 8.38. Also, the “log P” value in series [2] is reported as 2.66. Moreover, the Solubility in water entry in series [2] (freely soluble) is on record as “up to 130 mg/mL”. Also, the pKa2 in series [2] (phenol) was 10.00. Moreover, the Solubility in chloroform result in series [2] (slightly soluble) is “up to 0.13 mg/mL”.
`C=C1CC[C@@]2(O)[C@H]3Cc4ccc(O)c5c4[C@@]2(CCN3CC2CC2)[C@H]1O5` [nalmefene, 6-methylene-6-deoxy-N-cyclopropylmethyl-14 hydroxydihydronormorphine]: the Solubility observation entry is “Completely Soluble,” in series [3] (Ethanol:Water 75:25, nalmefene 200 mg/mL); “Completely Soluble,” in series [3] (Ethanol:Water:Gelucire 34/14 75:20:5, nalmefene 200 mg/mL); “Completely Soluble,” in series [3] (Ethanol:Water:Glycerine 70:20:10, nalmefene 300 mg/mL); “Completely Soluble,” in series [3] (Ethanol:Water:Labrafil M1944 CS 80:17.5:2.5, nalmefene 200 mg/mL); “Completely Soluble,” in series [3] (Ethanol:Water:Labrafil M2125 OS 80:17.5:2.5, nalmefene 200 mg/mL); “Completely Soluble,” in series [3] (Ethanol:Water:Propylene Glycol 68:22:10, nalmefene 350 mg/mL). For the same compound, the Solubility observation result in series [3] (Ethanol:Water:Propylene Glycol 82.5:12.5:5, nalmefene 200 mg/mL) is listed as “Completely Soluble,”; in series [3] (Ethanol:Water:Propylene Glycol:Tween 80 70:25:4:1, nalmefene 350 mg/mL) it was “Completely Soluble,”; in series [3] (Ethanol:Water:Tween 20 75:24.5:0.5, nalmefene 250 mg/mL) it was “Completely Soluble,”. In series [4], this compound showed a Vd of 2.77 L/kg. The clearance in series [4] is 46.2 mL/min/kg. In series [4], this compound gave a half-life of 1.34 h.
As to `C=C1CC[C@@]2(O)[C@H]3Cc4ccc(O)c5c4[C@@]2(CCN3)[C@H]1O5` [nornalmefene], the “Nornalmefene (metabolite) plasma concentrations” value in series [5] was “below the limit of quantitation”.

The log P is a log measure of how a compound divides between an organic and an aqueous phase. What is called Vd is a proportionality between amount in the body and measured concentration, not a real space. Usually clearance stands for the volume of plasma or blood freed of the substance per unit of time. High values mean efficient removal, low ones inefficient removal. Usually half-life stands for the time needed for the level to fall by half in the phase considered. A higher half-life goes with slow loss.
